Results published in patent publication US20180078656A1, “CRYPTOPHYCIN-BASED ANTIBODY-DRUG CONJUGATES WITH NOVEL SELF-IMMOLATIVE LINKERS” (priority 2015, published 2018).
Structures can show the parent of a compound that is named as a salt. Where two headings read alike, the source gives them in different places.

Experiments:
H69 cells = experiment: Cell viability assay (CellTiter-Glo), H69 wild type; format: cell-based; conditions: wild type H69, 120 h incubation
Method: (§1) H69 cells and the drug-resistant counterpart H69AR were obtained from the American Type Culture Collection and were grown according to standard protocols. The effects of cryptophycin and cryptophycin conjugates on the viability of wild type and drug resistant tumor cell lines were assessed using the CellTiter-Glo® Luminescent Cell Viability Assay (Promega), according to the manufacturer protocol. Cells were plated in black-walled 96-well plates (5000 cells per well) and allowed to adhere overnight at 37° C. in a humidified atmosphere of 5% CO2. Medium was then removed and replaced by fresh culture medium containing increasing concentrations of cryptophycin analogs or doxorubicin as a control. Cells were incubated with compounds for 120 h at 37° C. in 5% CO2. Eight triplicate 1:3 serial dilution datapoints were recorded for each experimental condition (from […] to 10 nM for CRY55-Gly, CRY55-Gly-LINKER73 and CRY55-Gly-LINKER76, from 1.2 nM to 2700 nM for doxorubicin). At the end of the incubation, luminescence was measured using a Perkin Elmer Wallac 1450 MicroBeta TriLux detector. Compound cytotoxicity was evaluated in comparison to cells treated with 0.1% DMSO.

HCT116 cells = experiment: Cell viability assay (CellTiter-Glo), HCT116; format: cell-based; conditions: read-out: HCT116 CC50
Method: (§2) Tumor cell lines (breast carcinoma cell lines SKBR-3 and MCF7 and colon carcinoma cell line HCT116) were obtained from American Type Culture Collection and were grown according to standard protocols. […] The effects of the cryptophycin-55-glycinate ADC conjugate on tumor cell viability were assessed using the CellTiter-Glo® Luminescent Cell Viability Assay (Promega), according to the manufacturer protocol. […] Cells were plated in black-walled 96-well plates (5000 cells per well for SKBR-3 and MCF7; 2000 cells per well for HCT116) and allowed to adhere overnight at 37° C. in a humidified atmosphere of 5% CO2. […] Five to eight triplicate datapoints were recorded for each experimental condition. At the end of the incubation luminescence was measured using a Perkin Elmer Wallac 1450 MicroBeta TriLux detector. Compound cytotoxicity was evaluated in comparison to cells treated with PBS (antibodies) or 0.1% DMSO (compounds). CC50 values were calculated by fitting viability data with a four-parameter logistic equation using a Kaleidagraph software.

MCF7 cells [1] = experiment: Cell viability assay (CellTiter-Glo), MCF7, 96 h; format: cell-based, human; conditions: read-out: MCF7 CC50
Method: as §2

SK-BR3 cells = experiment: Cell viability assay (CellTiter-Glo), SK-BR3; format: cell-based; conditions: read-out: SK-BR3 CC50
Method: as §2

H69AR cells = experiment: Cell viability assay (CellTiter-Glo), drug-resistant H69AR; format: cell-based; conditions: for IC50: 120 h incubation
Method: as §1

AR42J cells = experiment: Cell viability assay (CellTiter-Glo), AR42J, 120 h; format: cell-based, rat; conditions: 120 h incubation; for IC50: SSTR2-high AR42J
Method: (§3) Tumor cell lines (the rat pancreatic tumor cell line AR42J and the human breast carcinoma cell line MCF7) were obtained from the American Type Culture Collection and were grown according to standard protocols.
(§4) The effects of the cryptophycin-55-glycinate-octreotide conjugate of Example 5 on the viability of the tumor cell lines AR42J (STTR2^high) and MCF7 (SSTR2^low) were assessed using the CellTiter-Glo® Luminescent Cell Viability Assay (Promega), according to the manufacturer protocol. Cells were plated in black-walled 96-well plates (5000 cells per well) and allowed to adhere overnight at 37° C. in a humidified atmosphere of 5% CO2. Medium was then removed and replaced by fresh culture medium containing increasing concentrations of cryptophycin-55-glycinate-octreotide conjugate (CRY55-Gly-Oct), unconjugated octreotide, or free cryptophycin-55-glycinate (CRY55-Gly), and the cells were incubated for 120 h at 37° C. in 5% CO2. Nine triplicate 1:3 serial dilution datapoints were recorded for each experimental condition (from 0.0015 nM to 10 nM for CRY55-Gly and CRY55-Gly-Oct, from 0.0015 uM to 10 uM for the unconjugated octreotide). At the end of the incubation luminescence was measured using a Perkin Elmer Wallac 1450 MicroBeta TriLux detector. Compound cytotoxicity was evaluated in comparison to cells treated with 0.1% DMSO. IC50 values were calculated by fitting viability data with a four-parameter logistic equation using a Kaleidagraph software. Residual cell viability plots obtained upon treatment of the AR42J and MCF7 cells with the different compounds are shown in FIG. 3 and FIG. 4, respectively.

MCF7 cells [2] = experiment: Cell viability assay (CellTiter-Glo), MCF7, 120 h; format: cell-based, human; conditions: for IC50: read-out: IC50, MCF7
Method: as §3, §4

Work on COc1ccc(C[C@H]2NC(=O)/C=C/C[C@@H]([C@H](C)[C@@H](OC(=O)CN)[C@@H](Cl)c3ccccc3)OC(=O)[C@H](CC(C)C)OC(=O)C(C)(C)CNC2=O)cc1Cl [Cry-55-Gly, Cryptophycin-55-glycinate trifluoroacetate] yielded an IC50 (H69 cells; Homo sapiens, NCI-H69) of 0.09 nM, a CC50 (HCT116 cells; Homo sapiens, HCT-116, 96 h) of 0.19 nM and a CC50 (MCF7 cells [1]; Homo sapiens, MCF7, 96 h) of 0.25 nM. It also gave a CC50 (SK-BR3 cells; Homo sapiens, SK-BR-3, 96 h) of 0.09 nM, an IC50 (H69AR cells; Homo sapiens) of 0.15 nM and an IC50 (AR42J cells; Rattus norvegicus, AR-42J) of 0.8 nM. For the same molecule, the IC50 (MCF7 cells [2]; Homo sapiens, MCF7, 120 h) was 0.2 nM.

COc1ccc(C[C@H]2NC(=O)/C=C/C[C@@H]([C@H](C)[C@@H](OC(=O)CNC(=O)[C@@H]3CCCN3C(=O)CNC(=O)[C@H](CCCNC(N)=O)NC(=O)[C@@H](NC(=O)CCOCCOCCOCCOCCn3cc(CCC(=O)N[C@H](Cc4ccccc4)C(=O)N[C@H]4CSSCC(C(=O)N[C@H](CO)[C@@H](C)O)NC(=O)C([C@@H](C)O)NC(=O)[C@H](CCCCN)NC(=O)[C@@H](Cc5c[nH]c6ccccc56)NC(=O)[C@H](Cc5ccccc5)NC4=O)nn3)C(C)C)[C@@H](Cl)c3ccccc3)OC(=O)[C@H](CC(C)C)OC(=O)C(C)(C)CNC2=O)cc1Cl (some centres unmarked) [Oct-Cry55-Gly conjugate] was tested, and the IC50 (AR42J cells) was 0.9 nM, the “fold difference of IC50 on MCF7, conjugate versus cryptophycin-55-glycinate” value (MCF7 cells [2]; MCF7, 120 h incubation) was 90 fold and the IC50 (MCF7 cells [2]; SSTR2-low MCF7, 120 h incubation) was 27 nM.

For COc1cccc2c1C(=O)c1c(O)c3c(c(O)c1C2=O)C[C@@](O)(C(=O)CO)C[C@@H]3O[C@H]1C[C@H](N)[C@H](O)[C@H](C)O1 [doxorubicin], the “effect on H69AR cell viability (in words)” value (H69AR cells; 120 h, 1.2 nM to 2700 nM) was “only minor effects”.

Molecule COc1ccc(C[C@H]2NC(=O)/C=C/C[C@@H]([C@H](C)[C@@H](O)[C@@H](Cl)c3ccccc3)OC(=O)[C@H](CC(C)C)OC(=O)C(C)(C)CNC2=O)cc1Cl [Cry-55, Cryptophycin-55] has an IC50 (H69 cells; Homo sapiens, NCI-H69) of 0.1 nM, a CC50 (HCT116 cells; Homo sapiens, HCT-116, 96 h) of 0.1 nM and a CC50 (MCF7 cells [1]; Homo sapiens, MCF7, 96 h) of 0.18 nM. The CC50 (SK-BR3 cells; Homo sapiens, SK-BR-3, 96 h) was 0.076 nM and the IC50 (H69AR cells; Homo sapiens) was 0.23 nM.

In the case of “Maleimide-PEG-Val-Cit-Pro-Gly-Cryptophycin-55-glycinate [Cry-55-Linker]”, the CC50 (HCT116 cells; Her2-low HCT116, 96 h incubation) is reported as 4.4 nM, the CC50 (MCF7 cells [1]; Her2-low MCF7, 96 h incubation) is reported as 6.1 nM and the CC50 (SK-BR3 cells; HER2-positive SK-BR3, 96 h incubation) is reported as 2.6 nM.

In the case of C[C@@H](O)[C@@H]1NC(=O)[C@H](CCCCN)NC(=O)[C@@H](Cc2c[nH]c3ccccc23)NC(=O)[C@H](Cc2ccccc2)NC(=O)[C@@H](NC(=O)[C@H](N)Cc2ccccc2)CSSC[C@@H](C(=O)N[C@H](CO)[C@@H](C)O)NC1=O [Octreotide], the “inhibition of AR42J viability” value (AR42J cells; up to 10 uM) is reported as 30% inh. up to 10 uM and the “IC50, MCF7 (in words)” value (MCF7 cells [2]; SSTR2-low MCF7, 120 h, tested […] to 10 uM) is reported as “completely ineffective”.

With “Azide-TEG-Val-Cit-Gly-Pro-Gly-cryptophycin-55 [Example 5]” the IC50 (H69 cells) was 1.7 nM and the IC50 (H69AR cells) was 3.6 nM.
